In PubChem BioAssay (NCI) one finds TGI and GI50 data, which are given here for 17 molecules.

Among the test systems are HCT-15 colon; RPMI-8226 leukemia; EKVX NSCLC; SK-MEL-5 melanoma; OVCAR-3 ovarian; SF-268 CNS; A498 renal; ACHN renal; DU-145 prostate.
Common to all, as to experiment: NCI-60 cell line screen, 48 h

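Where inhibition never reached the appropriate level, the endpoint shown equals the highest concentration tested. Otherwise, values were interpolated linearly from a five-concentration, 48-hour dose response in 96-well plates. GI50 = concentration required for 50% inhibition of growth. At the TGI there is no net growth.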

On to `C#CCN(N=O)C(=O)NC(CCCNC(=O)OCc1ccccc1)C(=O)OCc1ccccc1` (configuration not stated), for which the TGI with HCT-15 colon, in the test with RPMI-8226 leukemia, with EKVX NSCLC, in the test with SK-MEL-5 melanoma, in the test on OVCAR-3 ovarian and in the test with SF-268 CNS was greater than 100 µM in each case. In addition, the TGI with A498 renal and in the test on ACHN renal was greater than 100 µM throughout.

Regarding `CC(=O)OC1CC2Oc3ccc(C)cc3C(C)(O2)C1=O` (configuration not stated), the TGI with HCT-15 colon, in the test on RPMI-8226 leukemia, in the test with EKVX NSCLC, in the test on SK-MEL-5 melanoma, in the test with OVCAR-3 ovarian and with ACHN renal was greater than 100 µM throughout.

`CC(=O)[O-].[Mn+3].[O-]c1ccccc1C=NCCN=Cc1ccccc1[O-]`: the GI50 in the test with HCT-15 colon is 41.9 µM; in the test on EKVX NSCLC it was greater than 100 µM; in the test on SK-MEL-5 melanoma, 94.8 µM; in the test with OVCAR-3 ovarian it was 17 µM; in the test with SF-268 CNS it was 11.1 µM; in the test with A498 renal it was greater than 100 µM. In addition, the GI50 with ACHN renal was greater than 100 µM. In addition, the TGI in the test on HCT-15 colon, in the test with EKVX NSCLC, in the test on SK-MEL-5 melanoma, with OVCAR-3 ovarian, in the test with SF-268 CNS and in the test with A498 renal was greater than 100 µM throughout. This molecule gave a TGI with ACHN renal greater than 100 µM.

In the case of `COc1ccc(N/N=C(\CCN(C)C)c2ccccc2)cc1`, the TGI in the test with HCT-15 colon is 4.57 µM; with RPMI-8226 leukemia it was 7.5 µM; with EKVX NSCLC, 56.9 µM; with SK-MEL-5 melanoma it was 21.2 µM; in the test on OVCAR-3 ovarian, 11.4 µM; in the test on SF-268 CNS it was greater than 100 µM. Also, the TGI came out at 29.6 µM in the test on A498 renal and 4.84 µM in the test with ACHN renal.

Consider `CN(C)CCNC(=O)c1cccc2c(Nc3ccc(S(N)(=O)=O)cc3)c3ccccc3nc12`, for which the TGI in the test with HCT-15 colon came out at 7.07 µM; in the test on RPMI-8226 leukemia it was 77.2 µM; in the test with EKVX NSCLC, 10.2 µM; with SK-MEL-5 melanoma it was 10.3 µM; with OVCAR-3 ovarian, 5.85 µM; in the test on SF-268 CNS, 7.49 µM. Moreover, the results for the TGI in the test with A498 renal and in the test on ACHN renal were 7.08 µM and 5.2 µM, respectively.

For `NC(=O)c1coc(C2OC(CO)C(O)C2O)n1` (configuration not stated), the TGI in the test with HCT-15 colon, in the test on RPMI-8226 leukemia, in the test with EKVX NSCLC, with OVCAR-3 ovarian, in the test on SF-268 CNS and in the test on A498 renal was greater than 100 µM throughout. Further, in the test on ACHN renal, the TGI was greater than 100 µM.

In the case of `O=c1cc(-c2ccccc2)oc2cc(O)cc(O)c12`, the TGI in the test on HCT-15 colon came out at 64 µM; with RPMI-8226 leukemia it was 41.7 µM; in the test on EKVX NSCLC it was 72 µM; with SK-MEL-5 melanoma, 23.4 µM; in the test on OVCAR-3 ovarian, 82.1 µM; in the test on SF-268 CNS it was 74.8 µM. Further, in the test on ACHN renal, the TGI was 33.9 µM.

Regarding `COc1ccc(Cc2cc3c(cc2OCC(=O)O)OCO3)cc1`, the TGI in the test on RPMI-8226 leukemia, with EKVX NSCLC, in the test with SK-MEL-5 melanoma, in the test with OVCAR-3 ovarian, in the test on SF-268 CNS and in the test on A498 renal was greater than 100 µM each time. This molecule also showed a TGI in the test with ACHN renal greater than 100 µM.

Take `O=C1c2ccccc2NC1(c1ccccc1)c1c(-c2ccccc2)[nH]c2ccccc12` (configuration not stated): the TGI in the test with HCT-15 colon, with RPMI-8226 leukemia, in the test with EKVX NSCLC, in the test on OVCAR-3 ovarian, in the test on A498 renal and with ACHN renal was greater than 100 µM in each case.

For the molecule `COC(=O)NC1(NC(=O)OC)NC(=O)c2cc(OC)c(OC)c(OC)c2N1`, the TGI in the test with HCT-15 colon, in the test on EKVX NSCLC, in the test on SK-MEL-5 melanoma, in the test on OVCAR-3 ovarian, in the test on SF-268 CNS and with A498 renal was greater than 100 µM throughout. In addition, the TGI in the test with DU-145 prostate and in the test with ACHN renal was greater than 100 µM in each case.

As to `CN(C)CCSc1cccc(-c2cc(-c3cccc(SCCN(C)C)c3)nc(SCCN(C)C)n2)c1`, the TGI in the test on HCT-15 colon stood at 4.67 µM; with EKVX NSCLC, 5.24 µM; in the test with SK-MEL-5 melanoma, 2.96 µM; with OVCAR-3 ovarian, 21.8 µM; in the test on ACHN renal, 19.4 µM.

Turning to `O=C(Nc1cccc(Cc2cccc(NC(=O)c3ccccc3)c2)c1)c1ccccc1`, the TGI with HCT-15 colon, in the test with EKVX NSCLC, in the test with SK-MEL-5 melanoma, with OVCAR-3 ovarian, in the test on SF-268 CNS and in the test on A498 renal was greater than 100 µM throughout. The molecule further showed a TGI in the test on ACHN renal greater than 100 µM.

With `Cc1nc(-c2ccccc2)cc2c1c(=O)oc1ccccc12`, the TGI with HCT-15 colon, in the test on RPMI-8226 leukemia, in the test on EKVX NSCLC, in the test on SK-MEL-5 melanoma, in the test on OVCAR-3 ovarian and in the test on SF-268 CNS was greater than 100 µM each time. This molecule came in with a TGI in the test with ACHN renal greater than 100 µM.

Regarding `CC(=O)O[C@H]1CCC2[C@@H]3CCC4=C(O)C(=O)C(C#N)C[C@]4(C)C3CC[C@@]21C` (some centres not stated), the TGI in the test with HCT-15 colon was greater than 100 µM; in the test with RPMI-8226 leukemia, greater than 100 µM; in the test with EKVX NSCLC, greater than 100 µM; in the test on SK-MEL-5 melanoma it was 71.1 µM; in the test on OVCAR-3 ovarian, greater than 100 µM; with SF-268 CNS it was greater than 100 µM. The TGI was 0.891 µM with A498 renal and greater than 100 µM with ACHN renal.

Regarding `O=C(c1ccccc1)c1oc2ccc(Br)cc2c1-c1cnn(-c2ccccc2)c1`, the TGI in the test with HCT-15 colon, in the test on RPMI-8226 leukemia, in the test on OVCAR-3 ovarian, in the test on SF-268 CNS and in the test with ACHN renal was greater than 100 µM each time.

Turning to `CC1(C)OB(O)OC1(C)C`, the TGI in the test on HCT-15 colon, in the test on RPMI-8226 leukemia, with EKVX NSCLC, in the test on SK-MEL-5 melanoma, in the test with OVCAR-3 ovarian and with SF-268 CNS was greater than 100 µM each time. In addition, the TGI with A498 renal and in the test with ACHN renal was greater than 100 µM throughout.

As for `O=S(=O)(SCc1ccccc1)C(c1ccccc1)c1ccccc1`, the TGI with HCT-15 colon is greater than 100 µM; with RPMI-8226 leukemia, 85.6 µM; in the test with EKVX NSCLC it was greater than 100 µM; with SK-MEL-5 melanoma, 51.8 µM; in the test on OVCAR-3 ovarian, greater than 100 µM; in the test with SF-268 CNS, greater than 100 µM. Further, the TGI in the test with A498 renal and with ACHN renal was greater than 100 µM throughout.
